Where two headings read alike, the source gives them in different places. Ends that are not written are not given here.
How the values were obtained:
Experiment in all cases: FP displacement (competition) of FITC-15 AA CRIPT by library peptide, IC50 and Ki
PSG G322A G335A (PSD-95) = details: for IC50: read-out: IC50 (µM), PSG G322A G335A; for Ki: read-out: Ki (µM), PSG G322A G335A
PSG G335A (PSD-95) = details: for IC50: read-out: IC50 (µM), PSG G335A; for Ki: read-out: Ki (µM), PSG G335A
PDZ3 (PSD-95) = PDZ3 (PSD-95) (Homo sapiens, UniProt P78352)
PSG G322A (PSD-95) = details: for Ki: read-out: Ki (µM), PSG G322A; for IC50: read-out: IC50 (µM), PSG G322A
PSG (PSD-95) = details: for IC50: read-out: IC50 (µM), PSG
[1] = FP displacement of FITC-15 AA CRIPT probe by acetylated PSD library peptide (P-13 to P0 plus extra N-terminal Y)
[2] = FP displacement of FITC-15 AA CRIPT probe by acetylated PSD library peptide
[3] = Ki (µM), PDZ3, FP displacement of FITC-15 AA CRIPT probe by acetylated PSD library peptide
[4] = Ki, FP displacement of 5 nM FITC-15 AA CRIPT by non-labeled acetylated peptide, room temperature, Ki from IC50, technical triplicates, PDZ3
[5] = read-out: Ki (µM), PSG, FP displacement of FITC-15 AA CRIPT probe by acetylated PSD library peptide
[6] = FP displacement of 5 nM FITC-15 AA CRIPT by non-labeled acetylated peptide, room temperature, Ki from IC50, technical triplicates, PSG
[7] = FP displacement of FITC-15 AA CRIPT probe by PSD library peptide, protein PSG G322A G335A
[8] = FP displacement of FITC-15 AA CRIPT probe by PSD library peptide, protein PSG G335A
[9] = FP displacement of FITC-15 AA CRIPT probe by PSD library peptide, protein PSG G322A
[10] = FP displacement of FITC-15 AA CRIPT probe by PSD library peptide, protein PSG (wild type)
[11] = read-out: Ki (µM), PSG, FP displacement of FITC-15 AA CRIPT probe by PSD library peptide, protein PSG (wild type)

PDZ3 (PSD-95), sequence (P78352 313-393 limits assumed): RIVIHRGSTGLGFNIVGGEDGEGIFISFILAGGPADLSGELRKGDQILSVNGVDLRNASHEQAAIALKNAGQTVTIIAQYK

Compound	IC50 (PSG G322A G335A (PSD-95); [1])	Ki (PSG G322A G335A (PSD-95); [2])	IC50 (PSG G335A (PSD-95); [2])	Ki (PSG G335A (PSD-95); [2])	IC50 (PDZ3 (PSD-95))	Ki (PSG G322A (PSD-95); [2])	IC50 (PSG (PSD-95); [2])	Ki (PSG (PSD-95); [5])	IC50 (PSG G322A (PSD-95); [2])	IC50 (PSG G322A G335A (PSD-95); [7])	IC50 (PSG G335A (PSD-95); [8])	IC50 (PSG G322A (PSD-95); [9])	Ki (PSG G322A (PSD-95); [9])	IC50 (PSG (PSD-95); [10])	Ki (PSG (PSD-95); [11])	also measured
CC(=O)N[C@@H](Cc1ccc(O)cc1)C(=O)N[C@@H](CO)C(=O)N[C@@H](CC(C)C)C(=O)N[C@@H](CO)C(=O)N[C@@H](CCCCN)C(=O)N[C@@H](Cc1c[nH]cn1)C(=O)N[C@@H](CCC(=O)O)C(=O)N[C@@H](CO)C(=O)N[C@@H](CCC(=O)O)C(=O)N[C@@H](Cc1ccc(O)cc1)C(=O)N[C@@H](CC(N)=O)C(=O)N[C@H](C(=O)N[C@H](C(=O)N[C@@H](CCCNC(=N)N)C(=O)N[C@H](C(=O)O)C(C)C)[C@@H](C)O)[C@@H](C)O [NETO1]	63 µM	22 µM	77 µM	27 µM	182 µM	45 µM	239 µM	101 µM								Ki (PDZ3 (PSD-95); [3]): 75 µM; Ki (PDZ3 (PSD-95); [4]): < 75 µM
CC[C@H](C)[C@H](NC(=O)[C@@H]1CCCN1C(=O)[C@H](Cc1ccc(O)cc1)NC(C)=O)C(=O)NCC(=O)NCC(=O)N[C@@H](CO)C(=O)N[C@@H](CC(C)C)C(=O)N[C@@H](CC(N)=O)C(=O)N[C@@H](CO)C(=O)N[C@H](C(=O)N[C@H](C(=O)N[C@@H](CC(=O)O)C(=O)N[C@@H](CO)C(=O)N[C@@H](C)C(=O)N[C@@H](CC(C)C)C(=O)O)[C@@H](C)O)[C@@H](C)O [RGS14]	76 µM	26 µM	233 µM	83 µM	67 µM	57 µM	427 µM	181 µM	133 µM							Ki (PDZ3 (PSD-95); [3]): 27 µM; Ki (PDZ3 (PSD-95); [4]): < 75 µM
CC(=O)N[C@@H](Cc1ccc(O)cc1)C(=O)N[C@@H](C)C(=O)N[C@@H](CO)C(=O)N[C@@H](CC(N)=O)C(=O)N[C@H](C(=O)N[C@@H](CC(N)=O)C(=O)N[C@H](C(=O)N[C@@H](CC(C)C)C(=O)N[C@@H](CC(N)=O)C(=O)N[C@@H](CCCNC(=N)N)C(=O)N[C@@H](CCCCN)C(=O)N[C@H](C(=O)N[C@H](C(=O)N1CCC[C@H]1C(=O)N[C@H](C(=O)O)C(C)C)[C@@H](C)O)[C@@H](C)O)[C@@H](C)O)[C@@H](C)O [CCG8]			28 µM	10 µM	19 µM	6 µM	116 µM	49 µM	15 µM							Ki (PDZ3 (PSD-95); [4]): < 75 µM; Ki (PSG (PSD-95); [6]): < 75 µM
CC[C@H](C)[C@H](NC(=O)[C@H](CCC(=O)O)NC(=O)[C@@H](NC(=O)[C@H](CO)NC(=O)[C@H](CCC(=O)O)NC(=O)[C@@H](NC(=O)[C@H](CCCNC(=N)N)NC(=O)[C@H](CCC(=O)O)NC(=O)[C@H](CC(C)C)NC(=O)[C@H](CCCNC(=N)N)NC(=O)[C@H](CO)NC(=O)[C@@H]1CCCN1C(=O)[C@@H](NC(=O)[C@H](Cc1c[nH]c2ccccc12)NC(=O)[C@H](Cc1ccc(O)cc1)NC(C)=O)[C@@H](C)O)[C@@H](C)CC)[C@@H](C)O)C(=O)O [LZTS3]										662 µM	630 µM	462 µM	200 µM	2120 µM	902 µM	Ki (PSG G322A G335A (PSD-95); [7]): 229 µM; Ki (PSG G335A (PSD-95); [8]): 224 µM
CSCC[C@H](NC(=O)[C@H](CCC(N)=O)NC(=O)[C@H](CC(=O)O)NC(=O)[C@H](Cc1ccc(O)cc1)NC(=O)[C@H](CC(=O)O)NC(=O)[C@@H]1CCCN1C(=O)[C@H](CO)NC(=O)[C@H](CCCCN)NC(=O)[C@H](CC(C)C)NC(=O)[C@H](Cc1ccc(O)cc1)NC(C)=O)C(=O)N[C@@H](CO)C(=O)N[C@@H](CO)C(=O)N[C@@H](CO)C(=O)N1CCC[C@H]1C(=O)N[C@@H](CS)C(=O)O [CCG5]	2450 µM	847 µM	2540 µM	907 µM		894 µM	1410 µM	600 µM	2060 µM							
Ac-YDSIEIYIPEAQTRL [DLGP2]					396 µM											Ki (PDZ3 (PSD-95); Ki (µM), PDZ3, FP displacement of FITC-15 AA CRIPT probe by PSD library peptide, protein PDZ3): 165 µM
CC(=O)N[C@@H](Cc1ccc(O)cc1)C(=O)N[C@@H](CO)C(=O)N[C@@H](CO)C(=O)N[C@H](C(=O)N[C@@H](CO)C(=O)N1CCC[C@H]1C(=O)N[C@@H](CCC(N)=O)C(=O)N[C@@H](CO)C(=O)N[C@H](C(=O)N[C@@H](CC(=O)O)C(=O)N[C@@H](CCCCN)C(=O)N[C@@H](CO)C(=O)N[C@@H](CO)C(=O)N[C@H](C(=O)N[C@H](C(=O)O)C(C)C)[C@@H](C)O)[C@@H](C)O)[C@@H](C)O [SRGP2]										435 µM	603 µM	792 µM	343 µM	1450 µM	765 µM	Ki (PSG G322A G335A (PSD-95); [7]): 151 µM; Ki (PSG G335A (PSD-95); [8]): 215 µM
CC(=O)N[C@@H](Cc1ccc(O)cc1)C(=O)N[C@@H](CCCCN)C(=O)N[C@@H](CCCCN)C(=O)N[C@H](C(=O)N[C@@H](CC(C)C)C(=O)N[C@@H](CC(=O)O)C(=O)N[C@H](C(=O)N[C@@H](CCCCN)C(=O)N[C@@H](CC(N)=O)C(=O)N[C@@H](Cc1ccc(O)cc1)C(=O)N[C@@H](CCCCN)C(=O)N[C@@H](CCC(N)=O)C(=O)N[C@H](C(=O)N[C@@H](CO)C(=O)N[C@H](C(=O)O)C(C)C)[C@@H](C)O)[C@@H](C)O)C(C)C [CRIPT]										0.868 µM	2 µM	1.49 µM	0.496 µM	6 µM	2.44 µM	Ki (PSG (PSD-95); [6]): < 75 µM
Ac-YPPSSPTLSVSSTSL [KLH17]	997 µM	345 µM	1430 µM	510 µM		671 µM	1590 µM	679 µM	1550 µM							
Ac-YQARRGKKKSGSLVL [RHOA]	1320 µM	457 µM				362 µM	2160 µM	923 µM	834 µM							Ki (PDZ3 (PSD-95); [3]): 548 µM
Ac-YLTGAPLATSDETSI [SEM4F]	536 µM	185 µM	764 µM	272 µM		218 µM	1740 µM	743 µM	503 µM							
CC(=O)N[C@@H](Cc1ccc(O)cc1)C(=O)N[C@H](C(=O)N[C@@H](CCC(=O)O)C(=O)N[C@@H](CO)C(=O)N[C@@H](CCCCN)C(=O)N[C@@H](CCCCN)C(=O)N[C@@H](Cc1c[nH]cn1)C(=O)NCC(=O)N[C@@H](CCCNC(=N)N)C(=O)N[C@@H](Cc1c[nH]c2ccccc12)C(=O)N[C@@H](CCCCN)C(=O)N[C@@H](CC(C)C)C(=O)N[C@@H](Cc1c[nH]c2ccccc12)C(=O)N[C@@H](Cc1ccccc1)C(=O)N[C@@H](CC(C)C)C(=O)O)[C@@H](C)O [INSY2]	980 µM	339 µM	1230 µM	438 µM		36 µM	380 µM	161 µM	83 µM							
CC(=O)N[C@@H](Cc1ccc(O)cc1)C(=O)N[C@@H](CCCNC(=N)N)C(=O)N[C@@H](CCC(N)=O)C(=O)N1CCC[C@H]1C(=O)N[C@@H](CC(C)C)C(=O)N1CCC[C@H]1C(=O)N[C@@H](CC(=O)O)C(=O)N[C@@H](CO)C(=O)N[C@@H](CC(N)=O)C(=O)N1CCC[C@H]1C(=O)N[C@@H](CCC(=O)O)C(=O)N[C@@H](CCC(=O)O)C(=O)N[C@@H](CO)C(=O)N[C@@H](CO)C(=O)N[C@H](C(=O)O)C(C)C [SEM4C]										147 µM	329 µM	156 µM	68 µM	631 µM	269 µM	Ki (PSG G322A G335A (PSD-95); [7]): 51 µM; Ki (PSG G335A (PSD-95); [8]): 117 µM

Source: paper PMC9490041, “Determinants of affinity, specificity, and phase separation in a supramodule from Post-synaptic density protein 95” (iScience, 2022)
